Assay: RP, Agilent ZORBAX Eclipse Plus C18, 50 × 4.6 mm, 1.8 µm, 0.5 mL/min, estimated dead time 1.1 min; A: water + 0.1% formic acid; B: acetonitrile + 0.1% formic acid; gradient (min/%B) 0/10 3/10 25/100 28/100
Details: stereoisomer not certain

SMILES	LC retention time [min]
O=c1[nH]c2c(c(=O)n1C1CCCCC1)CCC2	11.3
CN(C(=O)COc1nc2ccccc2s1)c1ccccc1	16
CCn1cc(C(=O)O)c(=O)c2ccc(C)nc21	11.5
Cc1c(C(C)C)c(=O)n(-c2ccccc2)n1C	11.9
Cc1ccc(C(C)(C)C)c(O)c1C(=O)O	14.2
CC(C)C1(C)N=C(c2nc3ccccc3cc2C(=O)O)NC1=O (stereo not given)	11
CCCSc1ccc2nc(NC(=O)OC)[nH]c2c1	10.5
CC(N)Cc1ccc2c(c1)OCO2 (stereo not given)	4.74
CC12CCC(O)CC1CCC1C2CC(O)C2(C)C(C3=CC(=O)OC3)CCC12O (stereo not given)	8.14
CCOP(=S)(OCC)OP(=S)(OCC)OCC	19.3
CNC(=O)ON=C(C)C(C)SC (stereo not given)	9.65
Nc1ccc(S(=O)(=O)Nc2ccccn2)cc1	5.27
Cc1nnc(-c2ccccc2)c(=O)n1N	7.57
CCSCc1ccccc1OC(=O)NC	13.1
Cc1c(N)c(=O)n(-c2ccccc2)n1C	2.39
CC1c2cccc(O)c2C(O)=C2C(=O)C3(O)C(O)=C(C(N)=O)C(=O)C(N(C)C)C3C(O)C21 (stereo not given)	8.75
CN(C)c1nc(=O)n(C2CCCCC2)c(=O)n1C	10.1
CNC(=O)N(C)c1nnc(C(C)(C)C)s1	9.87
CC(C)N1C(=O)c2ccccc2NS1(=O)=O	12.7
CCOC(=O)C(CCc1ccccc1)NC(C)C(=O)N1CCCC1C(=O)O (stereo not given)	9.21
CCCCCc1cc(O)c2c(c1)OC(C)(C)C1CCC(C)=CC21 (stereo not given)	23.6
Nc1ccc(-c2ccc(N)cc2)cc1	1.36
COc1ccc2cc(C(C)C(=O)O)ccc2c1 (stereo not given)	13.8

SMILES	LC retention time [min]
CC12CCC3C(CCC4=CC(=O)CCC43C)C1CCC2=O (stereo not given)	14.8
CC(C)c1ccc(NC(=O)N(C)C)cc1	12.9
COc1nn(CSP(=S)(OC)OC)c(=O)s1	15.3
CCCN(CCC)C(=O)SCc1ccccc1	20.4
CCOP(=S)(OCC)Oc1ccc(=O)n(-c2ccccc2)n1	16.1
CCCCN(CCCC)N=O	15.9
NC(=O)Cc1cccc2ccccc12	10
COCc1cnc(C2=NC(C)(C(C)C)C(=O)N2)c(C(=O)O)c1 (stereo not given)	8.04
CNC(=O)ON=C(C)C(C)S(C)(=O)=O (stereo not given)	4.36
c1ccc2[nH]c(-c3cscn3)nc2c1	4.54
CSc1nnc(C(C)(C)C)c(=O)n1N	11.5
CC(Cc1ccc(C(C)(C)C)cc1)CN1CCCCC1 (stereo not given)	12.5
CC(=O)OC1C=CC2C3Cc4ccc(O)c5c4C2(CCN3C)C1O5 (stereo not given)	4.94
COc1ccc(-c2ccccc2)cc1NNC(=O)OC(C)C	16.6
COP(=S)(OC)Oc1ccc([N+](=O)[O-])cc1	16.3
CCCCc1c(C)nc(NCC)nc1OS(=O)(=O)N(C)C	14.4
C=C(C)C1Cc2c(ccc3c2OC2COc4cc(OC)c(OC)cc4C2C3=O)O1 (stereo not given)	17.2
CN=C(NC#N)NCCSCc1nc[nH]c1C	1.83
CCOP(=O)(OCC)OCC	9.03
COc1cc(NS(=O)(=O)c2ccc(N)cc2)nc(OC)n1	10.4
CNC(=C[N+](=O)[O-])NCCSCc1ccc(CN(C)C)o1	2.03
Nc1ccc(S(N)(=O)=O)cc1	1.82
COP(N)(=S)Oc1ccccc1C(=O)OC(C)C (stereo not given)	14.9

SMILES	LC retention time [min]
CC(C)N1C(=O)N(c2ccccc2)CSC1=NC(C)(C)C	18.3
Cc1ccnc(NS(=O)(=O)c2ccc(N)cc2)n1	5.73
Cc1ncc([N+](=O)[O-])n1CCO	2.77
COC(=O)c1ccccc1S(=O)(=O)NC(=O)Nc1nc(C)cc(C)n1	12.2
CCC1OC(=O)C(C)C(OC2CC(C)(OC)C(O)C(C)O2)C(C)C(OC2OC(C)CC(N(C)C)C2O)C(C)(O)CC(C)C(=NOCOCCOC)C(C)C(O)C1(C)O (stereo not given)	11.3
Cn1c(=O)[nH]c(=O)c2[nH]cnc21	1.47
CC(C)Cc1ccc(C(C)C(=O)O)cc1 (stereo not given)	16.6
Nc1ccc(S(=O)(=O)Nc2nccs2)cc1	5.2
COC(=O)Nc1nc2ccccc2[nH]1	3.27
CCNC(C)Cc1ccccc1 (stereo not given)	5.85
CNC(C)Cc1ccccc1 (stereo not given)	4.88
CNC(=O)ON=CC(C)(C)SC	10.2
COP(=S)(OC)Oc1ccc([N+](=O)[O-])c(C)c1	17.2
Cc1ccc(NS(=O)(=O)N(C)C)cc1	12.9
CCOC(=O)N(C)C(=O)CSP(=S)(OCC)OCC	17.8
CNC(=O)CSP(=O)(OC)OC	2.22
COP(N)(=O)SC (stereo not given)	1.61
Cn1cnc2c1c(=O)[nH]c(=O)n2C	1.96
CCC(C)C(=O)OC1CC(O)C=C2C=CC(C)C(CCC(O)CC(O)CC(=O)O)C21 (stereo not given)	10.7
CC12CCC3C(=CCc4cc(O)ccc43)C1CCC2=O (stereo not given)	14.4
CC12CCC3c4ccc(O)cc4CCC3C1CCC2O (stereo not given)	13.4
COP(=S)(OC)Oc1ccc(S(=O)(=O)N(C)C)cc1	15.3
CCn1cc(C(=O)O)c(=O)c2cnc(N3CCNCC3)nc21	4.78

SMILES	LC retention time [min]
CCNc1nc(NCC)nc(SC)n1	8.74
CCCCCCCCCCCCCCCC[N+](C)(C)Cc1ccccc1	20.6
CNC(C)C(O)c1ccccc1 (stereo not given)	2.78
CCCCCc1cc(O)c2c(c1)OC(C)(C)C1CCC(C(=O)O)=CC21 (stereo not given)	19.1
CS(=O)(=O)c1ccc(C(=O)C2C(=O)CCCC2=O)c([N+](=O)[O-])c1	12
CCOP(=S)(OCC)Oc1ccc([N+](=O)[O-])cc1	18.5
CC(C)(C)NCC(O)c1ccc(O)c(CO)c1 (stereo not given)	1.63
C=C(C)C1CCC(C)=CC1c1c(O)cc(CCCCC)cc1O (stereo not given)	21.2
CCN(CC)C(=O)c1cccc(C)c1	12.8
O=C(NN=Cc1ccc([N+](=O)[O-])o1)c1ccc(O)cc1	9.51
COP(=O)(OC)OC(C)=CC(=O)N(C)C	6.41
COC(=O)Nc1nc2ccc(C(=O)c3ccccc3)cc2[nH]1	10.7
CNC(=O)C=C(C)OP(=O)(OC)OC	5.55
CC(C)(C)NCC(O)COc1nsnc1N1CCOCC1 (stereo not given)	6.87
CCNc1nc(NC(C)C(C)C)nc(SC)n1 (stereo not given)	13.1
CNC(=O)Oc1ccccc1OC(C)C	11.9
CN1CCCC1c1cccnc1 (stereo not given)	1.36
COP(=S)(OC)Oc1ccc(SC)c(C)c1	18.5
CN(C)C1C(=O)C(C(N)=O)=C(O)C2(O)C(=O)C3=C(O)c4c(O)cccc4C(C)(O)C3C(O)C12 (stereo not given)	6.11
CCOC(=O)NCCOc1ccc(Oc2ccccc2)cc1	17
CNC(=O)N(C)c1nc2ccccc2s1	12.1

Source: the RepoRT retention time repository (doi:10.1016/j.chroma.2014.05.003)
